Laboratory results reported in ChEMBL document CHEMBL1201862, “PubChem BioAssay data set” (2004).
The source made the active and inactive calls.

Tests used:
[1] = molecular target: T1, Neuropeptide Y receptor type 1 (Homo sapiens, UniProt P25929); assay type: functional;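 also: HEK293 cells with a CNG channel challenged with NPY then isoproterenol; potency as antagonist that reverses NPY suppression of cAMP signal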
T1 sequence (P25929 whole entry): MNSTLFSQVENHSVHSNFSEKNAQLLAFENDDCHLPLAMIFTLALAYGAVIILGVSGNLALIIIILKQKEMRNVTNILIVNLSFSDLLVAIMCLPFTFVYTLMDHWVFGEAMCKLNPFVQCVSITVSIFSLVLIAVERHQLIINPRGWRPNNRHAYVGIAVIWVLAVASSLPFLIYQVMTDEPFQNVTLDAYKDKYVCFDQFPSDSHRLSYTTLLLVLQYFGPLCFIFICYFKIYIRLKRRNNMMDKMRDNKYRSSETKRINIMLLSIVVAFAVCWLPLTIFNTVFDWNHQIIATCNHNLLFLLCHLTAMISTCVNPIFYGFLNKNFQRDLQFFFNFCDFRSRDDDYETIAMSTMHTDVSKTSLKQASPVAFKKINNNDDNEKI

[2] = molecular target: Phospholipase A2 (Homo sapiens, UniProt P04054); assay: phospholipase A2 activity inhibition – biochemical, set 2, counter-screen for ATG4B inhibitor project, dose response (AID 588586); assay type: functional
[3] = molecular target: T2, Neuropeptide Y receptor type 2 (Homo sapiens, UniProt P49146); assay type: functional, cell-based;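 also: HEK293 cells expressing the receptor and a CNG channel; stimulus was NPY near EC95 followed by isoproterenol to raise cAMP; antagonist potency measured as restoring cAMP signal that NPY suppresses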
T2 sequence (P49146 whole entry): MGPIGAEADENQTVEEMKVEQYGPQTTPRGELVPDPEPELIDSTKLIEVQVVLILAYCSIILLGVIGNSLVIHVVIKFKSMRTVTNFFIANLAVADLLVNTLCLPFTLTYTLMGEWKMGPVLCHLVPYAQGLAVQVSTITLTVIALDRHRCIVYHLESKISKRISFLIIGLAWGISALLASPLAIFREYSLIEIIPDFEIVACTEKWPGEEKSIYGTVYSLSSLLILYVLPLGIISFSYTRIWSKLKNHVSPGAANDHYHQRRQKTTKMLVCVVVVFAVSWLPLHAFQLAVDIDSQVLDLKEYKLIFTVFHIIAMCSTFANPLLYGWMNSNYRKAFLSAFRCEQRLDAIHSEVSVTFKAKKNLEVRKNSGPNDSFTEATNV

[4] = molecular target: T3, Cysteine protease ATG4B (Homo sapiens, UniProt Q9Y4P1); assay: autophagin-1 cysteine protease inhibition – biochemical, fluorescence, set 2, dose response (AID 588584); assay type: functional
T3 sequence (Q9Y4P1 whole entry): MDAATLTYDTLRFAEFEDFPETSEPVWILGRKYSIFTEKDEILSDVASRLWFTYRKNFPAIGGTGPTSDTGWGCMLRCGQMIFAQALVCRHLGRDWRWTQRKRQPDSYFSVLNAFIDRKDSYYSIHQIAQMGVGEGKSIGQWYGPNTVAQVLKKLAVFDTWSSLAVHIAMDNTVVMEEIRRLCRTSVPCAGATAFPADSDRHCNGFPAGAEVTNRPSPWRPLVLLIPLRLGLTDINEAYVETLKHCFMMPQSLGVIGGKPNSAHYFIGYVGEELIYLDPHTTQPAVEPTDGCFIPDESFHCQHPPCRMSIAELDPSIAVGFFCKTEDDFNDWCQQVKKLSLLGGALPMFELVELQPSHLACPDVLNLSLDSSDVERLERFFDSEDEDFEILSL

[5] = DRD fibroblast viability loss – cell-based, non-viral oncogenic, luminescence, dose response (AID 1934); assay type: functional; conditions: Homo sapiens
[6] = system: BJ; assay: cells; assay type: functional, cell-based; conditions: Homo sapiens
[7] = loss of viability in HepG2 cells – cell-based, CellTiter-Glo, cherry-picked, cytotoxicity control for Shn3 inhibitor project, dose response (AID 624134); assay type: functional
[8] = system: BJ; assay: BJ-TERT-LT-ST fibroblast viability loss – cell-based, RAS-independent, luminescence, dose response (AID 1935); assay type: functional; conditions: Homo sapiens;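 also: BJ fibroblasts immortalized with TERT plus LT and ST oncogenes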
[9] = system: BJ; assay: BJ-TERT fibroblast viability loss – cell-based, RAS-independent, luminescence, dose response (AID 1933); assay type: functional; conditions: Homo sapiens
[10] = reduction of Shn3 3'UTR-driven luciferase in osteoblasts – cell-based, Clone20 osteoblasts, firefly luciferase, cherry-picked, dose response (AID 624132); assay type: functional;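 also: firefly luciferase luminescence from reporter carrying the Shn3 3'UTR in osteoblasts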
[11] = non-specific 3'UTR reporter inhibition in Clone20-Shn3RL – cell-based, Renilla luciferase, cherry-picked, counter-screen for Shn3 inhibitor project, dose response (AID 624133); assay type: functional
[12] = molecular target: T4, Microphthalmia-associated transcription factor (Homo sapiens, UniProt O75030); assay: reducers of TRPM1 reporter luminescence, concentration series – cell-based, SK-MEL-5, cherry-picked, set 3, MITF inhibitor project, dose response (AID 493073); assay type: functional;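 also: SK-MEL-5 melanoma cells with luciferase driven by the MITF target TRPM1 promoter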
T4 sequence (O75030 whole entry): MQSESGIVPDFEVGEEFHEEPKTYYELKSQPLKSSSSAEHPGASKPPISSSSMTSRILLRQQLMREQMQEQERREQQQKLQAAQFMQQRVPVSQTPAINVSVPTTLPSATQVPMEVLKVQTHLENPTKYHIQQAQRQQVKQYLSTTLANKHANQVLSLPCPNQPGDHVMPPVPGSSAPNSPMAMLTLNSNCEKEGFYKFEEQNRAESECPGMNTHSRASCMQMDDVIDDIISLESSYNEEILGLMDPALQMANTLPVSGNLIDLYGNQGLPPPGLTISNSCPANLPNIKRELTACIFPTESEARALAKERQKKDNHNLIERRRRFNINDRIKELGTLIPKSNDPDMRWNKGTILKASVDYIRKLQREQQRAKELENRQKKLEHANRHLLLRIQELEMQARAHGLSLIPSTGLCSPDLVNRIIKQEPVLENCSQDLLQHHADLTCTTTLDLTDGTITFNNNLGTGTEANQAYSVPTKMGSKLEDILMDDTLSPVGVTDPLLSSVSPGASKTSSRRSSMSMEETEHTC

[13] = system: A-375; assay: MITF: Counter assay: A375 proliferation Measured in Cell-Based System Using Plate Reader - 2084-03_Inhibitor_Dose_DryPowder_Activity. [Related pubchem assays (depositor defined):AID488944]; assay type: functional; conditions: Homo sapiens
[14] = molecular target: T5, Dual specificity protein phosphatase 6 (Rattus norvegicus, UniProt Q64346)
[15] = molecular target: T5, Dual specificity protein phosphatase 6; assay type: functional
[16] = molecular target: Glyceraldehyde-3-phosphate dehydrogenase (Homo sapiens, UniProt P04406)
[17] = molecular target: T6, Tyrosine-protein phosphatase non-receptor type 7 (Homo sapiens, UniProt P35236); assay type: functional
T6 sequence (P35236 whole entry): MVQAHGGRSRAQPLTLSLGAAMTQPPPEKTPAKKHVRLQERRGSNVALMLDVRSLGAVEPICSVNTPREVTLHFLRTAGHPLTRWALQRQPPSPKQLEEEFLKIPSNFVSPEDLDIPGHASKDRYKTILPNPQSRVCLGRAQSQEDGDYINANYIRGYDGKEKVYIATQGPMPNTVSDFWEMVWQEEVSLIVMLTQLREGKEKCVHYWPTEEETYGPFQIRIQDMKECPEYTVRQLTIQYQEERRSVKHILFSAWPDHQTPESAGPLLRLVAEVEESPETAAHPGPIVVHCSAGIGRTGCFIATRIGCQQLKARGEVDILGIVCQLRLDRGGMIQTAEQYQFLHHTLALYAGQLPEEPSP

[18] = system: Candida albicans; assay: fluconazole-resistant Candida strain growth inhibitors – CaCi-8 strain, dry powder, set 4, dose response (AID 488950); assay type: functional, organism-based
[19] = system: Candida albicans; assay: C. albicans growth inhibition with fluconazole – CaCi-2 strain, Alamar Blue, dry powder, set 4, dose response (AID 488943); assay type: functional, organism-based
[20] = system: Candida albicans; assay: resistant Candida growth with fluconazole co-treatment – CaCi-8 strain, Alamar Blue, dry powder, set 2, dose response (AID 488909); assay type: functional, organism-based
[21] = system: Candida albicans; assay: Candida growth reduction in fluconazole presence – CaCi-2 strain, Alamar Blue, dry powder, set 2, antifungal resistance reversal project, dose response (AID 488930); assay type: functional, organism-based

T5 sequence (Q64346 whole entry): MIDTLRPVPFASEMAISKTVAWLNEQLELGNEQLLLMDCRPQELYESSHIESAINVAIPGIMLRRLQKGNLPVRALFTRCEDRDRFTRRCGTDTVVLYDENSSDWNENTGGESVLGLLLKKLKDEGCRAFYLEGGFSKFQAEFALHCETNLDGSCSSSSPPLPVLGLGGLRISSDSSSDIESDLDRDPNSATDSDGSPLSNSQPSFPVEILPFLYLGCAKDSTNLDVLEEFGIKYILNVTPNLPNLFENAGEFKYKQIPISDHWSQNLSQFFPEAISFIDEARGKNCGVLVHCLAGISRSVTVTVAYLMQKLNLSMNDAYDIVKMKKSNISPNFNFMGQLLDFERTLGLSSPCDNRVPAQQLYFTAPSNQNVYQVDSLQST
Glyceraldehyde-3-phosphate dehydrogenase, sequence (P04406 whole entry): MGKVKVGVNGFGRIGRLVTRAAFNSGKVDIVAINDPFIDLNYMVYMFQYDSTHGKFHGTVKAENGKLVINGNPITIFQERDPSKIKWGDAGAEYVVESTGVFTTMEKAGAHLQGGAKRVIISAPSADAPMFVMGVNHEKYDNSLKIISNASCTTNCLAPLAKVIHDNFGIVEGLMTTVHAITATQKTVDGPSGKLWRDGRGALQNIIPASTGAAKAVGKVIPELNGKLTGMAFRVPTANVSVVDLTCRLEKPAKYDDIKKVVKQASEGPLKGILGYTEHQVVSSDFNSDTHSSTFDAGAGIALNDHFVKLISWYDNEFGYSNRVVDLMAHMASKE
Phospholipase A2, sequence (P04054 whole entry): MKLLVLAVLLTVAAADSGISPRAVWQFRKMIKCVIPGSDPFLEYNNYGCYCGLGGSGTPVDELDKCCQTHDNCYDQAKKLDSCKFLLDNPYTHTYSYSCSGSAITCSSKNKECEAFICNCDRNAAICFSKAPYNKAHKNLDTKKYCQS

## Cc1ccccc1C(=O)c1cccn1CC(=O)NCCN1CCN(c2cccc(C)c2C)CC1
[1]
  IC50: 6.43 µM (active)
[2]
  IC50: 17.7 µM (active)
[3]
  IC50: 13.2 µM (not active)
[4]
  IC50: 25.3 µM (inactive)

## Cc1cccc(N2C(=O)NC(=O)/C(=C\C=C\c3ccco3)C2=O)c1
[5]
  EC50: 3.62 µM (active)
[6]
  EC50: 11.3 µM (active)
[7]
  AC50: 25.6 µM (active)
[8]
  EC50: 4.93 µM (inconclusive)
[9]
  EC50: 4.02 µM (active)
[10]
  AC50: 3.06 µM (active)
[11]
  AC50: 26.4 µM (active)
[12]
  AC50: 5.75 µM (active)
[13]
  AC50: 28.4 µM (active)

## CCn1c(SCC(=O)O)nc2sc3c(c2c1=O)CCCC3
[14]
  IC50: > 100 µM (inactive)
[15]
  IC50: > 100 µM (inactive)
[16]
  IC50: > 100 µM (not active)
[17]
  IC50: > 100 µM (not active)

## CC1CN(c2ccnc3cc(Cl)ccc23)CCN1C(=O)c1ccc(Cl)cc1 (stereo unspecified)
[18]
  AC50: 1.82 µM (active)
[19]
  AC50: 0.783 µM (active)
[20]
  AC50: 6.14 µM (active)
[21]
  AC50: 0.645 µM (active)
